In US11021721B2, “Genetically engineered Pseudomonas strains capable of metabolizing ethylene glycol and its metabolic intermediates” (Alliance for Sustainable Energy, LLC, priority 2017, dated 2021):
“And” between values parts separate entries of the source, which are not always exact repeats. Identical values can stand only once.

Legend:
P. putida KT2440 [1] = experiment: Toxicity tests in Bioscreen C: growth in M9 minimal medium with 20 mM glucose and inhibitor; assay type: cell-based, Pseudomonas putida KT2440; settings: 20 mM glucose
Protocol: Toxicity tests and competitive inhibition assays were performed using Bioscreen C MBR analyzers (Growth Curves US, Piscataway, N.J.). For toxicity tests, overnight cultures of P. putida KT2440 were grown in M9 medium containing 20 mM glucose starting at an OD600 of 0.05-0.1 at 30° C. with shaking at 225 rpm in baffled shake flasks until the OD600 reached about 1.0-1.5. Cells were subsequently concentrated by centrifugation and inoculated into wells of Bioscreen C microplates at an initial OD600=0.05. Each well contained a total volume of 300 M9 medium, 20 mM glucose, and inhibitors at various concentrations. Incubations were performed at 30° C. with maximum shaking. Absorbance readings were taken every 15 min. […] Initial OD600 was set at 0.1 by using an overnight culture of wild type P. putida KT2440. Samples were incubated as described above. Operation of the Bioscreen C MBR and collection of turbidity measurements (OD420-580) were computer automated with EZ Experiment.
Growth curves were obtained from Bioscreen C analyzers (Growth Curves US, Piscataway, N.J.). Overnight cultures of P. putida KT2440 were grown in M9 medium containing 20 mM glucose starting at an OD600 of 0.05-0.1, 30° C., 225 rpm (baffled shake flask) until the OD600 reached ˜1.0-1.5. Cells were concentrated by centrifugation and inoculated into wells of Bioscreen C microplates containing various inhibitors and concentrations in the presence of 20 mM glucose at and additional OD600=0.05 in a total volume of 300 μL. Incubations were performed at 30° C. and absorbance readings were taken every 15 min. Operation of the Bioscreen C and collection of turbidity measurements (OD420-580) were computer automated with EZ Experiment. Data was collected and exported to Microsoft Excel spreadsheets for analysis.

P. putida KT2440 [2] = experiment: Competitive inhibition assay, glycolaldehyde and glyoxal full-factorial growth test (Bioscreen C); assay type: cell-based, Pseudomonas putida KT2440
Protocol: FIG. 13 depicts synergistic inhibitory effect of glycolaldehyde and glyoxal. Growth assays were conducted in 100 well plates in the Bioscreen C MBR analyzer. Individual wells of the plate were filled with 200 μL of M9 medium-containing 20 mM glucose and the respective concentration of glycolaldehyde and glyoxal according to a 3-level full-factorial design (Table 3), growth rates expressed as means±SEM (n=3). Bars labeled with different letters indicate statistical significance of different runs (p<0.05; one-way ANOVA followed by Tukey's post hoc honest significance difference test).
Toxicity tests and competitive inhibition assays were performed using Bioscreen C MBR analyzers (Growth Curves US, Piscataway, N.J.). For toxicity tests, overnight cultures of P. putida KT2440 were grown in M9 medium containing 20 mM glucose starting at an OD600 of 0.05-0.1 at 30° C. with shaking at 225 rpm in baffled shake flasks until the OD600 reached about 1.0-1.5. Cells were subsequently concentrated by centrifugation and inoculated into wells of Bioscreen C microplates at an initial OD600=0.05. Each well contained a total volume of […] M9 medium, 20 mM glucose, and inhibitors at various concentrations. Incubations were performed at 30° C. with maximum shaking. Absorbance readings were taken every 15 min. For competitive inhibition assays, individual wells of the plate were filled with 200 μL of M9 medium containing 20 mM glucose and a respective concentration of glycolaldehyde and glyoxal according to full-factorial test run results of which are presented in Table 3 and depicted in graphical form in FIG. 13. Initial OD600 was set at 0.1 by using an overnight culture of wild type P. putida KT2440. Samples were incubated as described above. Operation of the Bioscreen C MBR and collection of turbidity measurements (OD420-580) were computer automated with EZ Experiment.
The toxicity effects of ethylene glycol, glyoxylate, glycolaldehyde, glyoxal and oxalate on P. putida KT2440 were examined by monitoring growth in the Bioscreen C instrument (a microplate reader which monitors turbidity over time) in the presence of M9 minimal medium containing 20 mM glucose and the inhibitor, see FIG. 20. The average OD of at least 5 wells was plotted in FIG. 9. […] Glyoxal, an oxidation product of glycolaldehyde, is also very inhibitory to P. putida KT2440 growth at a 5 mM concentration where a long lag phase is observed. At 7.5 mM, glyoxal is lethal to the cells. Therefore, glycolaldehyde and glyoxal are intermediate metabolites which result in ethylene glycol toxicity on P. putida KT2440. Glycolaldehyde exerts combinational inhibitory effect with other compounds, such as 5-HMF, furfural, and methylglyoxal. The combinational inhibitory effect of glycolaldehyde and glyoxal was determined by running three level full-factorial growth experiments, see FIG. 13 and Table 3.

P. putida KT2440 [3] = settings: on glucose, co-feed of formate, similar conditions; cited from earlier work
[4] = tested on: tartronate semialdehyde reductase (GlxR); settings: cited from earlier work
P. putida KT2440 [5] = experiment: C-limited chemostat cultivation on acetate with co-feed of ethylene glycol or glyoxylate; assay type: cell-based, Pseudomonas putida KT2440; settings: for increase of biomass yield on acetate: 30 mM co-feed with 30 mM acetate, compared to control with only acetate; for reducing equivalents generated through co-metabolism: co-feed with acetate, assuming all glyoxylate is metabolized through the glyoxylate shunt
Protocol: FIG. 14 depicts co-feeding of P. putida KT2440 in C-limited chemostat cultivations on mineral medium with 30 mM acetate supplemented with 30 mM ethylene glycol (black), 30 mM glyoxylate (green), or no co-feed (grey). FIG. 14A depicts a comparison of biomass (OD600) at steady state. FIG. 14B depicts extracellular metabolites at steady state. […] FIG. 14C depicts flux analysis of redox equivalent-yielding metabolism of ethylene glycol (upper value) or glyoxylate (lower value) in mM gCDW^−1 h^−1. Cells were grown at a dilution rate of 0.2. Error bars indicate the deviation from the mean (n=2).
To investigate the applicability of ethylene glycol as a co-substrate, P. putida KT2440 was cultured in carbon-limited chemostat cultivations with acetate as carbon source, and either ethylene glycol or glyoxylate as an energy source. Acetate was chosen because it induces the glyoxylate shunt enzymes.
Energy and redox equivalent homeostasis is essential for efficient growth of a bacterial cell.

## O=CC=O [Glyoxal, glyoxal]
P. putida KT2440 [1]
  concentration inhibitory to growth with long lag phase: 5000 µM
  lethal concentration: 7.5 mM
P. putida KT2440 [2]; in the presence of 2 mM glyoxal
  Growth Rate: 0.25 h⁻¹ and 0.297 ± 0.001 h⁻¹
P. putida KT2440 [2]; run 1: glycolaldehyde 0 mM, glyoxal 1.0 mM
  Growth Rate: 0.297 h⁻¹
P. putida KT2440 [2]; run 2: glycolaldehyde 0 mM, glyoxal 1.5 mM
  Growth Rate: 0.280 h⁻¹
P. putida KT2440 [2]; run 3: glycolaldehyde 0 mM, glyoxal 2.0 mM
  Growth Rate: 0.246 h⁻¹

## O=CO [formate]
P. putida KT2440 [3]
  reducing equivalents at maximal achievable biomass yield: 7.6±0.9 mmol (g CDW)^−1 h^−1

## O=C(O)C(=O)CO [hydroxypyruvate]
[4]
  maximal velocity as GlxR substrate, fold lower than tartronate semialdehyde: 10 fold

## O=CC(=O)O [glyoxylate]
P. putida KT2440 [5]
  increase of biomass yield on acetate: 22.2±8.2%
  reducing equivalents generated through co-metabolism: 14.4±0.5 mmol (g CDW)^−1 h^−1

## OCCO [Ethylene glycol, ethylene glycol]
P. putida KT2440 [5]
  increase of biomass yield on acetate: 29.6±1.1%
  reducing equivalents generated through co-metabolism: 27.3±2.6 mmol (g CDW)^−1 h^−1

## O=CCO [Glycolaldehyde, glycolaldehyde]
P. putida KT2440 [1]
  concentration that completely inhibited growth: 4000 µM
  concentration that inhibits growth: 3000 µM
P. putida KT2440 [2]; in the presence of 2 mM glycolaldehyde
  Growth Rate: 0.22 h⁻¹ and 0.291 ± 0.001 h⁻¹
P. putida KT2440 [2]; run 13: glycolaldehyde 1.0 mM, glyoxal 0 mM
  Growth Rate: 0.281 h⁻¹
P. putida KT2440 [2]; run 14: glycolaldehyde 1.5 mM, glyoxal 0 mM
  Growth Rate: 0.221 h⁻¹
P. putida KT2440 [2]; run 15: glycolaldehyde 2 mM, glyoxal 0 mM
  Growth Rate: 0.218 h⁻¹

## O=C([O-])C(=O)[O-].[Na+].[Na+] [sodium oxalate]
P. putida KT2440 [1]
  concentration not significantly inhibitory to growth: up to 50 mM

## O=C(O)CO [glycolate]
[4]; inhibition of GlxR
  Ki: 3 mM
